Reference: PMC5874820 (Pharmaceutics, 2018)
Where two headings read alike, the source gives them in different places.

Experiments:
[1] = Supersaturation study in SGF and SIF (without enzyme), UV at 420 nm; assay type: physicochemical; details: 100 µg/mL CUR, 30 °C
Experimental: Supersaturation of CUR and CUR-ART were measured in SGF and SIF (without enzyme) medium at 30 °C. The supersaturated solution (CUR 100 µg/mL dissolved in 5 mL of SGF/SIF fluid) was stirred at 800 rpm using a magnetic stirrer at 30 °C. After regular intervals of time 2, 4, 6, 12 and 24 h the solution concentration of curcumin was determined at 420 nm maxima on a Thermo Scientific Evolution 300 UV-Vis spectrometer (Thermo Scientific, Waltham, MA, USA).

[2] = system: PANC-1 xenograft tumor; assay: In vivo PANC-1 tumor growth xenograft model; set-up: species or system female athymic nude mice; details: for percentage of inhibition of tumor growth: Panc-1 xenograft in nude mice
Experimental: The PANC-1 cells derived from human pancreatic carcinoma of ductal cell origin were obtained from National Center for Cell Science, Pune, India. The cells were cultured in Dulbecco's modified medium (DMEM) supplemented with 10% v/v fetal bovine serum (FBS), 1% penicillin, and 1% streptomycin. Cultures (Figure S1, Supplementary Materials) were maintained at 37 °C in a humidified atmosphere with 5% CO2. Female athymic nude mice were obtained from the National Centre for Laboratory Animal Sciences (NCLAS), National Institute of Nutrition (ICMR), Hyderabad, India and were selected after careful initial screening for any external signs of disease or injuries. They were housed in individual cages in the conventional animal facilities of NCLAS, a registered facility with Committee for the Purpose of Control and Supervision of Experimentation on Animals (CPCSEA) (154/1999), Government of India. The environmental conditions were kept at 21 ± 2 °C, with 10-15 air changes per hour and relative humidity of 50-55 percent with 12 h light/dark cycle water. Animals were quarantined for 4 days and all the animals had free access to sterile formulated feed pellets and filtered potable clean water. PANC-1 cells (1 × 10^6) using matrigel were injected subcutaneously into the flanks of mice (Figure S2, Supplementary Materials). […] Each mouse was administered orally (p.o.) every day with either control vehicle (CMC), CUR (50 mg/kg), ART (50 mg/kg), CUR-ART (50 and 100 mg/kg) and Doxorubicin (2 mg/kg) by intravenous (i.v.) route. […] At the same time, the body weight of each animal was measured. At the end of the experiment (4 weeks after cell inoculation), the animals were euthanized by CO2 and sacrificed. Tumors from each animal were removed and measured. Each value represents mean ± SD (Standard Deviation). The control and experimental animal groups were compared by paired t-test. **** p < 0.0001 was considered significant.

[3] = set-up: method as in PMID 17999464, PMID 1529022; details: cited from earlier work
[4] = cited from earlier work
[5] = set-up: method as in doi:10.1039/C4RA11935E; details: curcumin (crystalline), oral dose of 200 mg/kg, male SD rats; cited from earlier work
[6] = Pharmacokinetic study, oral gavage, curcumin in plasma by HPLC; details: oral administration, SD rats
Experimental: Sprague-Dawley rats (200 ± 50 g) were obtained from Sainath Agencies Limited (Hyderabad, India). Animals were acclimatized for 1 week prior to experimentation in a temperature-controlled, 12/12 h light/dark room, and were allowed standard laboratory food and water. The rats were fasted overnight (~18 h) with free access to water before the experiment.
All compounds (200 mg/kg) were suspended in 1% sodium carboxymethylcellulose (CMC) separately and administered by oral gavage. Blood (0.4 mL) was withdrawn from retro-orbital plexus into lithium heparin tube at the following times after drug administration: 30, 45, 60, 90, 120, 180, 240, 360, 480 and 720 min. […]
Curcumin Plasma concentrations of CUR were analyzed by HPLC (Shimadzu, Mumbai, India). The area under the curve (AUC) for serum concentration versus time plots was calculated by linear trapezoidal rate. […]
The HPLC analyses were performed using a Shimadzu Prominence model LC-20AD equipped with 20 mL injection loop, and a photodiode array detector and CUR detected at 420 nm. […]
The standard curve was calculated by a linear relationship between concentration and area with regression factor R = 0.999. The Area under the curve (AUC) for serum concentration vs. Time plots was calculated by the linear trapezoidal rule. […]

[7] = pure curcumin, reference not given

Row | Molecule | precipitation / residence time of solubilized CUR [1] | percentage of inhibition of tumor growth ([2]; 50 mg/kg p.o. daily) [%] | aqueous solubility [3] [µg/mL] | detection by HPLC at higher dosage levels ([4]; dosage >1 g/kg, ref recent reports) | half-life ([4]; pure curcumin in crystalline form, reference not given) [min] | half-life [4, 7] [min] | time in which it decomposes [4, 7] | plasma concentration by HPLC [5] | detectable curcumin levels in the serum [6] | percentage of inhibition of tumor growth ([2]; 2 mg/kg i.v. daily) [%] | effect on tumor size compared to other solids and controls ([2]; p < 0.0001, Panc-1 xenograft in nude mice)
1 | Curcumin | precipitated faster than CUR-ART | 41.23 | 7.8 | could not be detected | 45 to 60 | < 60 | less than 1 h | no plasma concentration for curcumin (crystalline) could be detected | did not show any detectable levels | – | –
2 | COc1cccc2c1C(=O)c1c(O)c3c(c(O)c1C2=O)C[C@@](O)(C(=O)CO)C[C@@H]3O[C@H]1C[C@H](N)[C@H](O)[C@H](C)O1 [doxorubicin] | – | – | – | – | – | – | – | – | – | 69.97 | decreased tumor size significantly
3 | C[C@@H]1CC[C@H]2[C@@H](C)C(=O)O[C@@H]3O[C@@]4(C)CC[C@@H]1[C@]32OO4 [ART, Artemisinin] | – | 29.22 | – | – | – | – | – | – | – | – | –
